Some test systems named below: A498 renal; BT-549 breast; DU-145 prostate; EKVX NSCLC; HCC-2998 colon; HOP-62 NSCLC; K-562 leukemia; LOX IMVI melanoma; RXF 393 renal; UACC-257 melanoma.
What all share (experiment): NCI anticancer screen, dose series, 48 h

11 compounds from PubChem BioAssay (NCI) can be followed below.

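Following 48 hours of exposure in 96-well plates, responses at five concentrations were used to interpolate endpoints linearly. Abbreviation: GI50, concentration required for 50% inhibition of growth. TGI denotes the concentration required for complete inhibition of growth.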 A value given as a limit tells only on which side of the number the result lay.

Consider `COc1cc2c(cc1OCCCCCCNC(=O)c1cc3ccccc3[nH]1)N=CC1CCCN1C2=O` (centres undefined), for which the GI50 was 26.3 µM with A498 renal; 21.7 µM with BT-549 breast; 21.6 µM in the test on DU-145 prostate; 14.4 µM with EKVX NSCLC; 35.8 µM in the test with HCC-2998 colon; 50.2 µM in the test on HOP-62 NSCLC. Besides, the GI50 is 30.5 µM in the test on K-562 leukemia, 31.8 µM in the test with LOX IMVI melanoma, 35.3 µM in the test on RXF 393 renal and 14.4 µM in the test on UACC-257 melanoma. For the same compound, the TGI in the test with A498 renal is 64.2 µM; in the test with BT-549 breast it was 74.2 µM; in the test on DU-145 prostate, 72.1 µM; in the test with EKVX NSCLC, 65.4 µM; in the test on HCC-2998 colon, above 100 µM; in the test with HOP-62 NSCLC, above 100 µM. The TGI in the test with K-562 leukemia was above 100 µM; in the test on LOX IMVI melanoma it was above 100 µM; in the test with RXF 393 renal, 54.6 µM; in the test with UACC-257 melanoma it was 51.2 µM.

In the case of `c1ccc(-c2n(Cc3ccc4ccccc4n3)c3ccccc3[n+]2Cc2ccc3ccccc3n2)cc1`, the GI50 in the test on A498 renal was 0.147 µM; with BT-549 breast, 0.31 µM; with DU-145 prostate it was 0.417 µM; in the test on EKVX NSCLC, 0.693 µM; in the test with HCC-2998 colon, 0.319 µM; with HOP-62 NSCLC, 0.446 µM. Further, the GI50 in the test on K-562 leukemia is 0.141 µM; with LOX IMVI melanoma, 0.261 µM; in the test with RXF 393 renal, 0.304 µM; with UACC-257 melanoma it was 0.252 µM. Also, the TGI turned out to be 1.02 µM with A498 renal; 1.32 µM in the test on BT-549 breast; 5.55 µM in the test on DU-145 prostate; 4.27 µM with EKVX NSCLC; 1.37 µM in the test with HCC-2998 colon; 1.95 µM in the test on HOP-62 NSCLC. For the same compound, the TGI in the test on K-562 leukemia came out at 1.34 µM; in the test with LOX IMVI melanoma, 1.06 µM; in the test on RXF 393 renal, 1.54 µM; with UACC-257 melanoma, 0.933 µM.

For `O=C(Cc1ccccc1)Nc1nnc(CCSCCc2nnc(NC(=O)Cc3ccccc3)s2)s1`, the GI50 was 0.696 µM with A498 renal; 5.18 µM in the test with BT-549 breast; 23.8 µM in the test on DU-145 prostate; above 100 µM with EKVX NSCLC; 89.8 µM in the test with HCC-2998 colon; 3.86 µM in the test on HOP-62 NSCLC. Further, the GI50 in the test on K-562 leukemia is 1.34 µM; in the test with LOX IMVI melanoma, 1.72 µM; with RXF 393 renal, 17.9 µM; in the test on UACC-257 melanoma, above 100 µM. Moreover, the TGI in the test with A498 renal was 31.9 µM; in the test with BT-549 breast it was 74.8 µM; in the test with DU-145 prostate, above 100 µM; with EKVX NSCLC, above 100 µM; in the test on HCC-2998 colon it was above 100 µM; with HOP-62 NSCLC it was 19.6 µM. In addition, the TGI was above 100 µM with K-562 leukemia, 11.1 µM with LOX IMVI melanoma, 68.9 µM with RXF 393 renal and above 100 µM in the test with UACC-257 melanoma.

For `O=C1C2C(C(=O)[N]1[Hg][c]1ccccc1)C1(Cl)C(Cl)=C(Cl)C2(Cl)C1(Cl)Cl` (centres undefined), the GI50 in the test on A498 renal is 2.45 µM; with BT-549 breast, 1.2 µM; in the test on DU-145 prostate, 1.66 µM; with EKVX NSCLC, 6.91 µM; with HCC-2998 colon, 2.12 µM; with HOP-62 NSCLC, 6.21 µM. The GI50 in the test with K-562 leukemia is 1.36 µM; in the test on LOX IMVI melanoma, 1.02 µM; with RXF 393 renal it was 0.423 µM; in the test on UACC-257 melanoma it was 1.22 µM. The TGI with A498 renal was 11.9 µM; with BT-549 breast it was 2.49 µM; in the test on DU-145 prostate, 3.29 µM; in the test with EKVX NSCLC, 25.2 µM; with HCC-2998 colon, 4.1 µM; in the test with HOP-62 NSCLC, 19.2 µM. Moreover, the TGI in the test with K-562 leukemia came to 11.4 µM; in the test on LOX IMVI melanoma, 2.39 µM; in the test with RXF 393 renal, 1.59 µM; in the test with UACC-257 melanoma, 2.52 µM.

Turning to `c1ccc(Cn2cc3c(c2)-c2oncc2CC3)cc1`, the GI50 was 3.43 µM in the test with A498 renal; 4.31 µM in the test with BT-549 breast; 0.977 µM in the test with DU-145 prostate; 2.74 µM in the test with EKVX NSCLC; 1.25 µM in the test on HCC-2998 colon; 1.28 µM with HOP-62 NSCLC. The GI50 in the test on K-562 leukemia is 0.387 µM; with LOX IMVI melanoma, 1.66 µM; with RXF 393 renal, 1.12 µM; with UACC-257 melanoma, 22.7 µM. Besides, the TGI was above 92.1 µM in the test on A498 renal; 98.2 µM in the test with BT-549 breast; 12.8 µM in the test with DU-145 prostate; above 100 µM in the test with EKVX NSCLC; 4.76 µM with HCC-2998 colon; above 59.4 µM with HOP-62 NSCLC. For the same compound, the TGI was above 100 µM in the test with K-562 leukemia, above 57.9 µM in the test on LOX IMVI melanoma, 4.76 µM with RXF 393 renal and 98.5 µM in the test on UACC-257 melanoma.

Take `NC(=O)Nc1ccc2ncnc(Nc3ccc(Cl)cc3)c2c1`: the GI50 in the test on A498 renal was 0.896 µM; in the test on BT-549 breast it was 18.9 µM; in the test on DU-145 prostate it was 4.21 µM; with EKVX NSCLC, 0.369 µM; in the test with HCC-2998 colon, 33.5 µM; in the test with HOP-62 NSCLC, 26.7 µM. Moreover, the GI50 was 28.9 µM in the test on K-562 leukemia, 18.1 µM in the test on LOX IMVI melanoma, 17 µM in the test on RXF 393 renal and 22 µM in the test on UACC-257 melanoma. The TGI is 16.2 µM in the test with A498 renal; 67.4 µM in the test on BT-549 breast; above 100 µM in the test on DU-145 prostate; 11.9 µM in the test on EKVX NSCLC; above 100 µM with HCC-2998 colon; above 91.9 µM in the test on HOP-62 NSCLC. In addition, the TGI in the test on K-562 leukemia was above 100 µM; with LOX IMVI melanoma it was 57.7 µM; with RXF 393 renal, 83.6 µM; in the test with UACC-257 melanoma, 66 µM.

Consider `Cc1cc(N(CCCNc2ccnc3cc(Cl)ccc23)Cc2cccs2)nc(Cl)n1`, for which the GI50 with A498 renal is 2.16 µM; with BT-549 breast, 3.69 µM; with DU-145 prostate, 7.9 µM; in the test on EKVX NSCLC, 3.72 µM; with HCC-2998 colon it was 4.05 µM; in the test on HOP-62 NSCLC, 11.8 µM. Also, the GI50 in the test on K-562 leukemia is 0.743 µM; in the test on LOX IMVI melanoma it was 2.79 µM; in the test with RXF 393 renal, 4.46 µM; with UACC-257 melanoma, 3.04 µM. The TGI with A498 renal was found to be 11.7 µM; in the test on BT-549 breast it was 15.7 µM; in the test with DU-145 prostate, 23.1 µM; with EKVX NSCLC it was 27.2 µM; with HCC-2998 colon, 17.8 µM; in the test with HOP-62 NSCLC, 29.6 µM. For the same compound, the TGI in the test with K-562 leukemia was 12.2 µM; in the test on LOX IMVI melanoma, 11.7 µM; in the test with RXF 393 renal it was 21.7 µM; with UACC-257 melanoma, 11.1 µM.

In the case of `Clc1ccccc1-c1nc2ccccc2[nH]1`, the GI50 in the test on A498 renal is 59.2 µM; in the test on BT-549 breast it was above 100 µM; with DU-145 prostate it was above 100 µM; in the test on EKVX NSCLC it was above 100 µM; in the test on HCC-2998 colon it was above 100 µM; with HOP-62 NSCLC, above 100 µM. The GI50 is 80.2 µM in the test on K-562 leukemia, above 100 µM in the test with LOX IMVI melanoma, above 100 µM in the test with RXF 393 renal and above 100 µM in the test on UACC-257 melanoma. For the same compound, the TGI in the test with A498 renal, with BT-549 breast, in the test with DU-145 prostate, with EKVX NSCLC, in the test on HCC-2998 colon and with HOP-62 NSCLC was above 100 µM each time. The TGI in the test on K-562 leukemia, in the test on LOX IMVI melanoma, with RXF 393 renal and with UACC-257 melanoma was above 100 µM in each case.

`COc1cc(C(=O)/C=C/c2c(-c3ccc(F)cc3)nc3sccn23)cc(OC)c1OC`: the GI50 in the test on A498 renal is 2.35 µM; in the test on BT-549 breast, 0.342 µM; with DU-145 prostate, 2.52 µM; in the test with EKVX NSCLC, 3.03 µM; with HCC-2998 colon, 2.03 µM; in the test on HOP-62 NSCLC, 1.96 µM. Besides, the GI50 with K-562 leukemia is 1.85 µM; in the test with LOX IMVI melanoma, 1.8 µM; with RXF 393 renal, 0.945 µM; in the test with UACC-257 melanoma it was 14.1 µM. Moreover, the TGI in the test with A498 renal is 6.16 µM; with BT-549 breast, 12.5 µM; in the test on DU-145 prostate it was 6.64 µM; with EKVX NSCLC it was above 100 µM; in the test on HCC-2998 colon it was 3.99 µM; in the test with HOP-62 NSCLC, 5.73 µM. In addition, the TGI came out at 6.64 µM with K-562 leukemia, 5.15 µM in the test with LOX IMVI melanoma, 4.23 µM in the test with RXF 393 renal and 33.7 µM in the test with UACC-257 melanoma.

For `Cc1ccc(C(=O)Nc2ccc(CN3CCN(C)CC3)c(C(F)(F)F)c2)cc1C#Cc1cncc2ncccc12`, the GI50 in the test with A498 renal was 0.209 µM; with BT-549 breast, 2.33 µM; in the test on DU-145 prostate it was 0.388 µM; with EKVX NSCLC it was 1.12 µM; in the test on HCC-2998 colon, 2.47 µM; in the test with HOP-62 NSCLC it was 0.474 µM. Further, the GI50 in the test on LOX IMVI melanoma was 0.0978 µM; in the test on RXF 393 renal it was 0.29 µM; in the test on UACC-257 melanoma, 0.402 µM. For the same compound, the TGI worked out at 0.656 µM in the test on A498 renal; 12.6 µM in the test on BT-549 breast; 1.53 µM in the test on DU-145 prostate; 16.7 µM with EKVX NSCLC; 22.2 µM in the test with HCC-2998 colon; 6.07 µM in the test on HOP-62 NSCLC. Besides, the TGI in the test on K-562 leukemia amounted to 1.67 µM; in the test on LOX IMVI melanoma, 0.554 µM; in the test on RXF 393 renal, 1.05 µM; in the test with UACC-257 melanoma it was 4.42 µM.

With `CC(C)(C)c1ccc(C(=O)N/N=C/c2ccc(O)cc2O)cc1`, the GI50 in the test with A498 renal was 1.27 µM; in the test with BT-549 breast, 0.933 µM; with DU-145 prostate it was 0.564 µM; in the test on EKVX NSCLC it was 0.356 µM; with HCC-2998 colon, 0.695 µM; in the test on HOP-62 NSCLC, 0.418 µM. The GI50 in the test on K-562 leukemia was 0.476 µM; in the test with LOX IMVI melanoma, 0.224 µM; with RXF 393 renal, 1.61 µM; in the test on UACC-257 melanoma, 0.557 µM. For the same compound, the TGI is 6.09 µM in the test on A498 renal; 9.53 µM in the test on BT-549 breast; 14 µM with DU-145 prostate; 11.8 µM in the test with EKVX NSCLC; 7.62 µM in the test on HCC-2998 colon; 11.1 µM in the test with HOP-62 NSCLC. In addition, the TGI is 20.1 µM with K-562 leukemia, 0.975 µM in the test with LOX IMVI melanoma, 12.2 µM with RXF 393 renal and 21.4 µM in the test with UACC-257 melanoma.
